PubChem BioAssay AID1919001 (Molecular Pharmacology Branch, DTP, NCI, 2023)

Tested on: 699152-130-R-J1-PDC complex spheroid growth
Assay: Anticancer human tumor 699152-130-R-J1-PDC patient-derived pancreatic carcinoma cell line growth inhibition [AhR]
Conditions: for IC50: curve of first compound; for viability, T/C: stronger effect = lower value
Method in brief: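 Complex tumor spheroids co-cultured with HUVEC and human MSC stroma; AhR antagonists tested in combination with standard-of-care and investigational agents. Top concentration at or near clinical Cmax (else 10 microM), half-log dilutions; growth expressed as percent test/control.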

[1] = second compound 0.1 µM, first compound 0.0316 µM
[2] = second compound 0.1 µM, first compound 0.1 µM
[3] = second compound 0.1 µM, first compound 0.316 µM
[4] = second compound 0.1 µM, first compound 1 µM
[5] = second compound 0.1 µM, first compound 3.16 µM
[6] = second compound 0.1 µM, first compound 10 µM
[7] = second compound 0.316 µM, first compound 0.0316 µM
[8] = second compound 0.316 µM, first compound 0.1 µM
[9] = second compound 0.316 µM, first compound 0.316 µM
[10] = second compound 0.316 µM, first compound 1 µM
[11] = second compound 0.316 µM, first compound 3.16 µM
[12] = second compound 0.316 µM, first compound 10 µM
[13] = second compound 1 µM, first compound 0.0316 µM
[14] = second compound 1 µM, first compound 0.1 µM
[15] = second compound 1 µM, first compound 0.316 µM
[16] = second compound 1 µM, first compound 1 µM
[17] = second compound 1 µM, first compound 3.16 µM
[18] = second compound 1 µM, first compound 10 µM
[19] = second compound 3.16 µM, first compound 0.0316 µM
[20] = second compound 3.16 µM, first compound 0.1 µM
[21] = second compound 3.16 µM, first compound 0.316 µM
[22] = second compound 3.16 µM, first compound 1 µM
[23] = second compound 3.16 µM, first compound 3.16 µM
[24] = second compound 3.16 µM, first compound 10 µM
[25] = second compound 10 µM, first compound 0.0316 µM
[26] = second compound 10 µM, first compound 0.1 µM
[27] = second compound 10 µM, first compound 0.316 µM
[28] = second compound 10 µM, first compound 1 µM
[29] = second compound 10 µM, first compound 3.16 µM
[30] = second compound 10 µM, first compound 10 µM
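Note: compound exposure lasted 7 days after spheroids had grown for 3 days.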

In the case of `CC1(C)CCC(CN2CCN(c3ccc(C(=O)NS(=O)(=O)c4ccc(NCC5CCOCC5)c([N+](=O)[O-])c4)c(Oc4cnc5[nH]ccc5c4)c3)CC2)=C(c2ccc(Cl)cc2)C1` + CC(CO)NC(=O)c1cc(-c2ccc(Cl)cc2)nn(-c2cnn(C)c2)c1=O, the IC50 (second compound 0.1 µM) is reported as > 10 µM, the IC50 (second compound 0.316 µM) is reported as > 10 µM and the IC50 (second compound 1 µM) is reported as > 10 µM. The IC50 (second compound 3.16 µM) was > 10 µM, the IC50 (second compound 10 µM) was > 10 µM and the viability, T/C [1] was 102%. For the same compound, the viability, T/C [2] was 119%, the viability, T/C [3] was 95.8% and the viability, T/C [4] was 111%. For the same compound, the viability, T/C [5] was 89.1%, the viability, T/C [6] was 60.5% and the viability, T/C [7] was 104%. It also gave a viability, T/C [8] of 109%, a viability, T/C [9] of 96.5% and a viability, T/C [10] of 92.2%. The viability, T/C [11] was 87.1%, the viability, T/C [12] was 63.1% and the viability, T/C [13] was 96.2%. It also gave a viability, T/C [14] of 108%, a viability, T/C [15] of 105% and a viability, T/C [16] of 102%. For the same compound, the viability, T/C [17] was 95.4%, the viability, T/C [18] was 66% and the viability, T/C [19] was 98%. The viability, T/C [20] was 100%, the viability, T/C [21] was 102% and the viability, T/C [22] was 83%. It also gave a viability, T/C [23] of 96.9%, a viability, T/C [24] of 65% and a viability, T/C [25] of 90.8%. For the same compound, the viability, T/C [26] was 91.3%, the viability, T/C [27] was 97.5% and the viability, T/C [28] was 84.2%. The viability, T/C [29] was 84.4% and the viability, T/C [30] was 73.7%.
For `CC1COCCN1c1cc(C2(S(C)(=N)=O)CC2)nc(-c2ccnc3[nH]ccc23)n1` (stereo not given) + Cc1cncc(-c2nc(NCCc3c[nH]c4ccccc34)c3ncn(C(C)C)c3n2)c1, the IC50 (second compound 0.1 µM) was > 10 µM, the IC50 (second compound 0.316 µM) was > 10 µM and the IC50 (second compound 1 µM) was > 10 µM. For the same compound, the IC50 (second compound 3.16 µM) was > 10 µM, the IC50 (second compound 10 µM) was < 0.0316 µM and the viability, T/C [1] was 98.9%. It also gave a viability, T/C [2] of 103%, a viability, T/C [3] of 113% and a viability, T/C [4] of 95.9%. For the same compound, the viability, T/C [5] was 85.3%, the viability, T/C [6] was 74.8% and the viability, T/C [7] was 96.5%. It also gave a viability, T/C [8] of 106%, a viability, T/C [9] of 114% and a viability, T/C [10] of 119%. For the same compound, the viability, T/C [11] was 95.1%, the viability, T/C [12] was 77.8% and the viability, T/C [13] was 117%. For the same compound, the viability, T/C [14] was 122%, the viability, T/C [15] was 126% and the viability, T/C [16] was 107%. For the same compound, the viability, T/C [17] was 123%, the viability, T/C [18] was 81.3% and the viability, T/C [19] was 90.6%. For the same compound, the viability, T/C [20] was 113%, the viability, T/C [21] was 90.9% and the viability, T/C [22] was 101%. It also gave a viability, T/C [23] of 92.3%, a viability, T/C [24] of 69.9% and a viability, T/C [25] of 25.2%. The viability, T/C [26] was 27.3%, the viability, T/C [27] was 29.9% and the viability, T/C [28] was 24.7%. For the same compound, the viability, T/C [29] was 25.9% and the viability, T/C [30] was 20.2%.
With `Nc1ncn(C2CC(O)C(CO)O2)c(=O)n1` (stereo not given) + Cc1cncc(-c2nc(NCCc3c[nH]c4ccccc34)c3ncn(C(C)C)c3n2)c1 the IC50 (second compound 0.1 µM) was > 1 µM, the IC50 (second compound 0.316 µM) was > 1 µM and the IC50 (second compound 1 µM) was > 1 µM. For the same compound, the IC50 (second compound 3.16 µM) was > 1 µM, the IC50 (second compound 10 µM) was < 0.00316 µM and the viability, T/C (second compound 0.1 µM, first compound 0.00316 µM) was 109%. It also gave a viability, T/C (second compound 0.1 µM, first compound 0.01 µM) of 88%, a viability, T/C [1] of 90.4% and a viability, T/C [2] of 98.4%. The viability, T/C [3] was 85.4%, the viability, T/C [4] was 87.8% and the viability, T/C (second compound 0.316 µM, first compound 0.00316 µM) was 99.3%. It also gave a viability, T/C (second compound 0.316 µM, first compound 0.01 µM) of 90.8%, a viability, T/C [7] of 104% and a viability, T/C [8] of 86.5%. The viability, T/C [9] was 96.3%, the viability, T/C [10] was 97.2% and the viability, T/C (second compound 1 µM, first compound 0.00316 µM) was 106%. It also gave a viability, T/C (second compound 1 µM, first compound 0.01 µM) of 115%, a viability, T/C [13] of 99.6% and a viability, T/C [14] of 97.9%. For the same compound, the viability, T/C [15] was 110%, the viability, T/C [16] was 92.2% and the viability, T/C (second compound 3.16 µM, first compound 0.00316 µM) was 95%. The viability, T/C (second compound 3.16 µM, first compound 0.01 µM) was 87.1%, the viability, T/C [19] was 111% and the viability, T/C [20] was 100%. It also gave a viability, T/C [21] of 97.6%, a viability, T/C [22] of 93.9% and a viability, T/C (second compound 10 µM, first compound 0.00316 µM) of 0.96%. For the same compound, the viability, T/C (second compound 10 µM, first compound 0.01 µM) was 2.37%, the viability, T/C [25] was 0.78% and the viability, T/C [26] was 0.82%. It also gave a viability, T/C [27] of 1.11% and a viability, T/C [28] of 5.98%.
In the case of `CCN(c1cc(-c2ccc(CN3CCOCC3)cc2)cc(C(=O)NCc2c(C)cc(C)[nH]c2=O)c1C)C1CCOCC1` + CC(CO)NC(=O)c1cc(-c2ccc(Cl)cc2)nn(-c2cnn(C)c2)c1=O, the IC50 (second compound 0.1 µM) is reported as > 3 µM, the IC50 (second compound 0.316 µM) is reported as > 3 µM and the IC50 (second compound 1 µM) is reported as > 3 µM. The IC50 (second compound 3.16 µM) was > 3 µM, the IC50 (second compound 10 µM) was > 3 µM and the viability, T/C (second compound 0.1 µM, first compound 0.00949 µM) was 97.8%. It also gave a viability, T/C (second compound 0.1 µM, first compound 0.03 µM) of 105%, a viability, T/C (second compound 0.1 µM, first compound 0.0949 µM) of 99.2% and a viability, T/C (second compound 0.1 µM, first compound 0.3 µM) of 96.2%. The viability, T/C (second compound 0.1 µM, first compound 0.949 µM) was 100%, the viability, T/C (second compound 0.1 µM, first compound 3 µM) was 102% and the viability, T/C (second compound 0.316 µM, first compound 0.00949 µM) was 107%. The viability, T/C (second compound 0.316 µM, first compound 0.03 µM) was 99.4%, the viability, T/C (second compound 0.316 µM, first compound 0.0949 µM) was 96.6% and the viability, T/C (second compound 0.316 µM, first compound 0.3 µM) was 94.5%. The viability, T/C (second compound 0.316 µM, first compound 0.949 µM) was 94.6%, the viability, T/C (second compound 0.316 µM, first compound 3 µM) was 99.4% and the viability, T/C (second compound 1 µM, first compound 0.00949 µM) was 105%. For the same compound, the viability, T/C (second compound 1 µM, first compound 0.03 µM) was 106%, the viability, T/C (second compound 1 µM, first compound 0.0949 µM) was 108% and the viability, T/C (second compound 1 µM, first compound 0.3 µM) was 97.3%. For the same compound, the viability, T/C (second compound 1 µM, first compound 0.949 µM) was 99.4%, the viability, T/C (second compound 1 µM, first compound 3 µM) was 111% and the viability, T/C (second compound 3.16 µM, first compound 0.00949 µM) was 97.1%. The viability, T/C (second compound 3.16 µM, first compound 0.03 µM) was 89.1%, the viability, T/C (second compound 3.16 µM, first compound 0.0949 µM) was 104% and the viability, T/C (second compound 3.16 µM, first compound 0.3 µM) was 91.2%. It also gave a viability, T/C (second compound 3.16 µM, first compound 0.949 µM) of 83.6%, a viability, T/C (second compound 3.16 µM, first compound 3 µM) of 95.1% and a viability, T/C (second compound 10 µM, first compound 0.00949 µM) of 93.9%. For the same compound, the viability, T/C (second compound 10 µM, first compound 0.03 µM) was 92.2%, the viability, T/C (second compound 10 µM, first compound 0.0949 µM) was 95.1% and the viability, T/C (second compound 10 µM, first compound 0.3 µM) was 85%. The viability, T/C (second compound 10 µM, first compound 0.949 µM) was 86.5% and the viability, T/C (second compound 10 µM, first compound 3 µM) was 87.5%.
`COc1cccc2c1C(=O)c1c(O)c3c(c(O)c1C2=O)CC(O)(C(=O)CO)CC3OC1CC(N)C(O)C(C)O1` (stereo not given) + CC(CO)NC(=O)c1cc(-c2ccc(Cl)cc2)nn(-c2cnn(C)c2)c1=O showed an IC50 (second compound 0.1 µM) of 0.453 µM, an IC50 (second compound 0.316 µM) of 0.378 µM and an IC50 (second compound 1 µM) of 0.462 µM. The IC50 (second compound 3.16 µM) was 0.37 µM, the IC50 (second compound 10 µM) was 0.325 µM and the viability, T/C [1] was 71.2%. It also gave a viability, T/C [2] of 86.7%, a viability, T/C [3] of 56.8% and a viability, T/C [4] of 29.1%. For the same compound, the viability, T/C [5] was 1.94%, the viability, T/C [6] was 11.6% and the viability, T/C [7] was 83.2%. It also gave a viability, T/C [8] of 74.2%, a viability, T/C [9] of 56% and a viability, T/C [10] of 21.6%. For the same compound, the viability, T/C [11] was 2.1%, the viability, T/C [12] was 11.6% and the viability, T/C [13] was 70.4%. For the same compound, the viability, T/C [14] was 72.7%, the viability, T/C [15] was 64.1% and the viability, T/C [16] was 20.7%. It also gave a viability, T/C [17] of 2.66%, a viability, T/C [18] of 12.9% and a viability, T/C [19] of 68.1%. It also gave a viability, T/C [20] of 69.9%, a viability, T/C [21] of 56.2% and a viability, T/C [22] of 9.03%. It also gave a viability, T/C [23] of 8.71%, a viability, T/C [24] of 15.1% and a viability, T/C [25] of 73.4%. For the same compound, the viability, T/C [26] was 69.3%, the viability, T/C [27] was 51.1% and the viability, T/C [28] was 2.91%. It also gave a viability, T/C [29] of 5.62% and a viability, T/C [30] of 12.8%.
